Measurements published in patent US20260035407A1, “CYCLIC PEPTIDE DERIVATIVE, METHOD FOR PRODUCING SAME, AND COMPOSITION” (priority 2022, published 2026).
Like-named read-outs stand apart in the source and are kept apart here.

System: Mouse astrocytes
Assay: Cell proliferation assay (BrdU method) on mouse astrocytes
Format: cell-based
Conditions: Astrocyte, read-out: Cell proliferation activity, proliferative activity (%); for activity at 400 µM: compound concentration 400 μM
Description: A screening test regarding the mouse astrocyte proliferation action of the compound synthesized in the Example described above was performed.
• Cells: Mouse astrocytes • Manufacturer: Cosmo Bio • Catalog No.: AST02C • Medium: 10% FBS, 1% PS, DMEM
• Cell proliferation assay (BrdU method)
Mouse astrocytes were put into sleep in a T-75 flask using a medium (10% FBS, 1% Penicillin-Streptomycin, DMEM (Low Glucose)) and cultured in a CO2 incubator (37° C., 5% CO2, ambient O2, wet, and the same applies below) for 4 days. Medium exchange was performed on the second day after sleep onset. The cells were detached using Trypsin-EDTA (0.05%) and phenol red, neutralized with a medium, and centrifuged (180×g, RT, 5 minutes), then seeded in a 96-well plate at 20,000 cells/0.1 mL/well using a medium, and cultured in a CO2 incubator. On the next day, the medium was replaced with serum-free DMEM (Low Glucose), and the cells were further cultured in a CO2 incubator for 24 hours.
Next, the medium was replaced with serum-free DMEM (Low Glucose) to which the compound was added or with compound-free-serum-free DMEM (Low Glucose), and the cells were further cultured in a CO2 incubator for 24 hours to treat the cells with the compound.
After completion of the compound treatment, cell proliferation assay was performed using Cell Proliferation ELISA, BrdU (colometric) (MERCK, Cat. No. 11647229001). 10 μL of a BrdU labeling solution (prepared by adding a BrdU-labeled reagent to a test substance-treated medium in an amount of 1/100 vol) was added thereto, and the mixture was cultured in a CO2 incubator for 4 hours. Next, after removing the medium, FixDenat was added at 200 μL/well and incubated at room temperature for 30 minutes. Next, FixDenat was removed and a POD-labeled anti-BrdU antibody reaction solution (prepared by adding 1/100 vol of a POD-labeled anti-BrdU antibody stock solution to an antibody diluent) was added at 100 μL/well, and the cells were incubated at room temperature for 2 hours. Next, antibodies were removed, and the wells were washed 3 times with 200 μL/well of a washing liquid. After washing, 100 μL/well of a substrate solution was added, incubation was performed at room temperature for 30 minutes, and an absorbance (370 nm, control wavelength 492 nm) was measured with a plate reader. A difference between the test substance-free group and the test substance-treated group was verified by Dunnett's test in which the test substance-free group was used as a control. The significance level was 5% for both groups.

[1] = mouse astrocytes, compound concentration 200 μM, 24 hours treatment in serum-free DMEM, BrdU
[2] = mouse astrocytes, 24 hours treatment in serum-free DMEM, BrdU

CC[C@@]1(C)Oc2cc(ccc2O)C[C@H](NC)C(=O)N[C@@H](C(C)C)C(=O)N[C@@H]1C(=O)N[C@@H](CCC(=O)O)C(=O)O [Compound 1]
activity at 25 µM (Mus musculus, 24 h): > 150%

CC[C@@]1(C)Oc2cc(ccc2O)C[C@H](NC)C(=O)NCC(=O)N[C@@H]1C(=O)N[C@@H](CCC(=O)O)C(=O)O [Compound 2]
activity at 25 µM (Mus musculus, 24 h): 110 to 130%

CN[C@H]1Cc2ccc(O)c(c2)OC[C@@H](C(=O)N[C@@H](CCC(=O)O)C(=O)O)NC(=O)CNC1=O [Compound 3]
activity at 200 µM [1]: 90 to 110%

CN[C@H]1Cc2ccc(O)c(c2)O[C@@H](C)[C@@H](C(=O)N[C@@H](CCC(=O)O)C(=O)O)NC(=O)CNC1=O [Compound 4]
activity at 400 µM [2]: 90 to 110%

CN[C@H]1Cc2ccc(O)c(c2)OC[C@@H](C(=O)N[C@@H](CCC(=O)O)C(=O)O)NC(=O)[C@H](C(C)C)NC1=O [Compound 5]
activity at 50 µM (mouse astrocytes, compound concentration 50 μM, 24 hours treatment in serum-free DMEM, BrdU): 90 to 110%

CC[C@@]1(C)Oc2cc(ccc2O)C[C@H](N)C(=O)N[C@@H](C(C)C)C(=O)N[C@@H]1C(=O)N[C@@H](CCC(=O)O)C(=O)O [Compound 6]
activity at 200 µM (Mus musculus, 24 h): 110 to 130%

N[C@H]1Cc2ccc(O)c(c2)OC[C@@H](C(=O)N[C@@H](CCC(=O)O)C(=O)O)NC(=O)CNC1=O [Compound 7]
activity at 400 µM [2]: 90 to 110%

CC(C)[C@@H]1NC(=O)[C@@H](N)Cc2ccc(O)c(c2)OC[C@@H](C(=O)N[C@@H](CCC(=O)O)C(=O)O)NC1=O [Compound 8]
activity at 100 µM (mouse astrocytes, compound concentration 100 μM, 24 hours treatment in serum-free DMEM, BrdU): 90 to 110%

CC[C@@]1(C)Oc2cc(ccc2O)C[C@H](NC)C(=O)N[C@@H](C(C)C)C(=O)N[C@@H]1C(=O)N[C@@H](CC(=O)O)C(=O)O [Compound 9]
activity at 200 µM (Mus musculus, 24 h): > 150%

CC[C@@]1(C)Oc2cc(ccc2O)C[C@H](NC)C(=O)NCC(=O)N[C@@H]1C(=O)N[C@@H](CC(=O)O)C(=O)O [Compound 10]
activity at 100 µM (Mus musculus, 24 h): 110 to 130%

CN[C@H]1Cc2ccc(O)c(c2)OC[C@@H](C(=O)N[C@@H](CC(=O)O)C(=O)O)NC(=O)CNC1=O [Compound 11]
activity at 200 µM [1]: 110 to 130%

CN[C@H]1Cc2ccc(O)c(c2)O[C@@H](C)[C@@H](C(=O)N[C@@H](CC(=O)O)C(=O)O)NC(=O)CNC1=O [Compound 12]
activity at 400 µM [2]: 110 to 130%

CC[C@@]1(C)Oc2cccc(c2)C[C@H](N)C(=O)NCC(=O)N[C@@H]1C(=O)N[C@@H](CCC(=O)O)C(=O)O [Compound 13]
activity at 200 µM (Mus musculus, 24 h): 110 to 130%

CC[C@@]1(C)Oc2cccc(c2)C[C@H](NC)C(=O)N[C@@H](C(C)C)C(=O)N[C@@H]1C(=O)N[C@@H](CCC(=O)O)C(=O)O [Compound 14]
activity at 200 µM (Mus musculus, 24 h): 110 to 130%

CC[C@@]1(C)Oc2cc(ccc2O)C[C@H](N)C(=O)N[C@@H](C(C)C)C(=O)N[C@@H]1C(=O)N[C@@H](CC(=O)O)C(=O)O [Compound 15]
activity at 200 µM (Mus musculus, 24 h): 90 to 110%

CN[C@H]1Cc2ccc(O)c(c2)OC(C)(C)[C@@H](C(=O)N[C@@H](CCC(=O)O)C(=O)O)NC(=O)[C@H](C(C)C)NC1=O [Compound 16]
activity at 200 µM (Mus musculus, 24 h): 130 to 150%

CN[C@H]1Cc2ccc(O)c(c2)OC(C)(C)[C@@H](C(=O)N[C@@H](CC(=O)O)C(=O)O)NC(=O)[C@H](C(C)C)NC1=O [Compound 17]
activity at 25 µM (Mus musculus, 24 h): 90 to 110%

CC[C@@]1(C)Oc2cc(ccc2O)C[C@H](NC)C(=O)N[C@@H](C(C)C)C(=O)N[C@@H]1C(=O)NCCCC(=O)O [Compound 18]
activity at 50 µM (Mus musculus, 24 h): 90 to 110%

CC(C)[C@@H]1NC(=O)[C@@H](N)Cc2ccc(O)c(c2)OC(C)(C)[C@@H](C(=O)N[C@@H](CCC(=O)O)C(=O)O)NC1=O [Compound 19]
activity at 200 µM (Mus musculus, 24 h): 110 to 130%

CC[C@@]1(C)Oc2cc(ccc2O)C[C@H](NC)C(=O)N[C@@H](C(C)C)C(=O)N[C@@H]1C(=O)N[C@H](CCC(=O)O)C(=O)O [Compound 20]
activity at 200 µM (Mus musculus, 24 h): 90 to 110%

CC[C@@]1(C)Oc2cc(ccc2O)C[C@H](NC)C(=O)N[C@@H](C(C)C)C(=O)N[C@@H]1C(=O)N[C@H](CC(=O)O)C(=O)O [Compound 21]
activity at 50 µM (Mus musculus, 24 h): 90 to 110%

CC[C@@]1(C)Nc2cc(ccc2O)C[C@H](NC)C(=O)N[C@@H](C(C)C)C(=O)N[C@@H]1C(=O)N[C@@H](CCC(=O)O)C(=O)O [Compound 22]
activity at 200 µM (Mus musculus, 24 h): 90 to 110%

CC[C@@]1(C)Oc2cc(ccc2O)C[C@H](N(C)C)C(=O)N[C@@H](C(C)C)C(=O)N[C@@H]1C(=O)N[C@@H](CCC(=O)O)C(=O)O [Compound 23]
activity at 1000 µM (Mus musculus, 24 h): 130 to 150%

CC[C@@]1(C)Oc2cc(ccc2O)C[C@H](NC)C(=O)N[C@@H](Cc2ccccc2)C(=O)N[C@@H]1C(=O)N[C@@H](CCC(=O)O)C(=O)O [Compound 24]
activity at 200 µM (Mus musculus, 24 h): 130 to 150%

CC[C@@]1(C)Oc2cc(ccc2O)C[C@H](NC)C(=O)N[C@@H](CCC(=O)O)C(=O)N[C@@H]1C(=O)N[C@@H](CCC(=O)O)C(=O)O [Compound 25]
activity at 50 µM (Mus musculus, 24 h): 90 to 110%

CC[C@@]1(C)Oc2cc(ccc2O)C[C@H](NC)C(=O)N[C@@H](CO)C(=O)N[C@@H]1C(=O)N[C@@H](CCC(=O)O)C(=O)O [Compound 27]
activity at 200 µM (Mus musculus, 24 h): 90 to 110%

CC[C@@]1(C)Oc2cc(ccc2O)C[C@H](NC)C(=O)N[C@@H]([C@@H](C)O)C(=O)N[C@@H]1C(=O)N[C@@H](CCC(=O)O)C(=O)O [Compound 28]
activity at 50 µM (Mus musculus, 24 h): 110 to 130%

CC[C@@]1(C)Oc2cc(ccc2O)C[C@H](NC)C(=O)N[C@@H](Cc2ccc(O)cc2)C(=O)N[C@@H]1C(=O)N[C@@H](CCC(=O)O)C(=O)O [Compound 29]
activity at 200 µM (Mus musculus, 24 h): 90 to 110%

CC[C@@]1(C)Oc2cc(ccc2O)C[C@H](NC)C(=O)N[C@@H](CCCNC(=N)N)C(=O)N[C@@H]1C(=O)N[C@@H](CCC(=O)O)C(=O)O [Compound 31]
activity at 100 µM (Mus musculus, 24 h): 110 to 130%

CC[C@@]1(C)Oc2cc(ccc2OC)C[C@H](NC)C(=O)N[C@@H](C(C)C)C(=O)N[C@@H]1C(=O)N[C@@H](CCC(=O)O)C(=O)O [Compound 37]
activity at 100 µM (Mus musculus, 24 h): 110 to 130%

CC[C@@]1(C)Oc2cc(ccc2O)C[C@H](N(C)C)C(=O)N[C@@H](C(C)C)C(=O)N[C@@H]1C(=O)N[C@@H](CC(=O)O)C(=O)O [Compound 39]
activity at 100 µM (Mus musculus, 24 h): 130 to 150%

CC[C@@]1(C)Oc2cc(ccc2O)C[C@H](N(C)C)C(=O)N[C@@H](CCC(=O)O)C(=O)N[C@@H]1C(=O)N[C@@H](CCC(=O)O)C(=O)O [Compound 40]
activity at 50 µM (Mus musculus, 24 h): 90 to 110%

CC[C@@]1(C)Oc2cc(ccc2O)C[C@H](NC)C(=O)N(C)[C@@H](C(C)C)C(=O)N[C@@H]1C(=O)N[C@@H](CC(=O)O)C(=O)O [Compound 41]
activity at 50 µM (Mus musculus, 24 h): 90 to 110%

CC[C@@]1(C)Oc2cc(ccc2O)C[C@H](NC)C(=O)N(C)[C@@H](C(C)C)C(=O)N[C@@H]1C(=O)N[C@@H](CCC(=O)O)C(=O)O [Compound 42]
activity at 200 µM (Mus musculus, 24 h): 130 to 150%

CC[C@@]1(C)Oc2cc(ccc2O)C[C@H](NC)C(=O)N[C@@H](C(C)C)C(=O)N(C)[C@@H]1C(=O)N[C@@H](CCC(=O)O)C(=O)O [Compound 43]
activity at 100 µM (Mus musculus, 24 h): 110 to 130%

CC[C@@]1(C)Oc2cc(ccc2O)C[C@H](NC)C(=O)N[C@@H](C(C)C)C(=O)N(C)[C@@H]1C(=O)N[C@@H](CC(=O)O)C(=O)O [Compound 44]
activity at 200 µM (Mus musculus, 24 h): 110 to 130%

CC[C@@]1(C)Oc2cc(ccc2O)C[C@H](NC)C(=O)N[C@H](C(C)C)C(=O)N[C@@H]1C(=O)N[C@@H](CC(=O)O)C(=O)O [Compound 45]
activity at 50 µM (Mus musculus, 24 h): 90 to 110%

CC[C@@]1(C)Oc2cc(ccc2O)C[C@H](NC)C(=O)N[C@@H](C(C)C)C(=O)N[C@@H]1C(=O)N(C)[C@@H](CC(=O)O)C(=O)O [Compound 47]
activity at 200 µM (Mus musculus, 24 h): 130 to 150%

CC[C@@]1(C)Oc2cc(ccc2O)C[C@H](NC)C(=O)N[C@@H](C)C(=O)N[C@@H]1C(=O)N[C@@H](CCC(=O)O)C(=O)O [Compound 48]
activity at 100 µM (Mus musculus, 24 h): 110 to 130%

CC[C@@]1(C)Oc2cc(ccc2O)C[C@H](NC)C(=O)N[C@@H](CC(C)C)C(=O)N[C@@H]1C(=O)N[C@@H](CCC(=O)O)C(=O)O [Compound 49]
activity at 200 µM (Mus musculus, 24 h): 110 to 130%

CC[C@H](C)[C@@H]1NC(=O)[C@@H](NC)Cc2ccc(O)c(c2)O[C@](C)(CC)[C@@H](C(=O)N[C@@H](CCC(=O)O)C(=O)O)NC1=O [Compound 50]
activity at 50 µM (Mus musculus, 24 h): 130 to 150%
